Values quoted from earlier work as cited in patent US20250195486A1 (Closed Loop Medicine Ltd., priority 2023, published 2025).
“Also recorded” adds a separate entry of the source. Where two headings read alike, the source gives them in different places.

Assays:
patients with AF = conditions: atrial fibrillation
[1] = population mean; Song et al. (2014), Phases I and II
patients with NVAF [2] = conditions: 12 weeks
[3] = Niebecker et al. (2015)
[4] = Yin et al. (2014)
P-gp = P-gp (Homo sapiens, UniProt P08183)
Sequence of P-gp (P08183 whole entry): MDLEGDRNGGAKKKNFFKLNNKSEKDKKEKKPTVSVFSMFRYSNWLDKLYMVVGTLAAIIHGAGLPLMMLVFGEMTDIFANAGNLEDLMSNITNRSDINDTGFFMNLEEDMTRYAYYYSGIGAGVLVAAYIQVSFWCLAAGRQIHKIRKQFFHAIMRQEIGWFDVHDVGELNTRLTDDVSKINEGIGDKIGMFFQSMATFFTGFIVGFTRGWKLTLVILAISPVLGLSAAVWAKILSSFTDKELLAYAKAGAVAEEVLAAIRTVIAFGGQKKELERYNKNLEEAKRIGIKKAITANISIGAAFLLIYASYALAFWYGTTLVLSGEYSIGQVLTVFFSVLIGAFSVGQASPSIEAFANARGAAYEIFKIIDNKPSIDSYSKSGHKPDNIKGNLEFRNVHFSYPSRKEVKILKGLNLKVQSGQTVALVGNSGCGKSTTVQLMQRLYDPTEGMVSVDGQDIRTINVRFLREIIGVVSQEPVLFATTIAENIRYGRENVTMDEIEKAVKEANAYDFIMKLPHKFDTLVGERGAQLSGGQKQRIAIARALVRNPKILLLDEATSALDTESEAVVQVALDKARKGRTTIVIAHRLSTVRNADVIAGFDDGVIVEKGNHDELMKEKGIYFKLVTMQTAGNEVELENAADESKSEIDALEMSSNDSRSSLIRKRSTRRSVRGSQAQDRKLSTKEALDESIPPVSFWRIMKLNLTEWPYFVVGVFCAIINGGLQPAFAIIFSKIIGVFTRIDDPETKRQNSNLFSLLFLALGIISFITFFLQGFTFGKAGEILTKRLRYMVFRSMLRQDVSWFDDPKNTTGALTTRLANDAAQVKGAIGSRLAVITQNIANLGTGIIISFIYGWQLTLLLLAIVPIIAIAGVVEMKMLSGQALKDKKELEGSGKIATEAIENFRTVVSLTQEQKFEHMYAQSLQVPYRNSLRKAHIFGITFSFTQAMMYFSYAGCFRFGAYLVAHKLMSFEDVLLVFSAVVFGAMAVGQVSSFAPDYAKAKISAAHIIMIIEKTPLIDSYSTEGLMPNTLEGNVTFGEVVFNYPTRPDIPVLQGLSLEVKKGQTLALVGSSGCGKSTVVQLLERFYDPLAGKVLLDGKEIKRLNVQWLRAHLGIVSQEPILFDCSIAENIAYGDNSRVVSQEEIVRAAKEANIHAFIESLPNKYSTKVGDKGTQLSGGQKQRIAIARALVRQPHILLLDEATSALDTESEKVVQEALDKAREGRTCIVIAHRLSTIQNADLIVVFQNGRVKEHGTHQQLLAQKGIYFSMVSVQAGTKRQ

[5] = not given; remark: listed apart in the source
[6] = Salazar et al. (2012)
patients with NVAF [7] = conditions: patient with normal renal function
[8] = population mean, Phases I and III
[9] = population mean, Phases I, II and III
[10] = normally distributed, mean 0, Krekels et al. (2016) model
[11] = population mean, Krekels et al. (2016), Phases I and III
[12] = population mean, Phases I and II

In the case of CC(=O)CC(c1ccccc1)c1c(O)c2ccccc2oc1=O (centres unmarked) [warfarin], the reduction of stroke (patients with AF) is listed as “about 60%”.

In the case of CN1CCc2nc(C(=O)N[C@@H]3C[C@@H](C(=O)N(C)C)CC[C@@H]3NC(=O)C(=O)Nc3ccc(Cl)cn3)sc2C1 [edoxaban], the “Metabolism (extent)” value (by CES1, CYP3A4 and glucuronidation) is given as under 30%, the “time of peak plasma concentrations” value (following oral administration) is given as 1 to 2 h and the “time of peak levels” value (immediate-release doses, taken without food) is given as 1 to 2 h. For the same molecule, the “time of peak levels with food” value (immediate-release doses, with food vs without food) was “an hour later”, the “Renal clearance as share of total body clearance” value (in vivo) was about 50% and the “accumulation upon repeat dosing” value (in vivo) was “minimal accumulation”. For the same molecule, the “effect of food on rate of absorption” value (in vivo) was “decreases the rate of absorption”, the “effect of food on total exposure” value (in vivo) was “does not affect” and the “increase of total systemic exposure (AUC∞)” value (moderate or severe renal impairment vs normal renal function) was “almost two-fold”. For the same molecule, the bioavailability (oral) was “approximately 62%”, the terminal half-life (oral administration) was 10 to 14 h and the “dose linearity of pharmacokinetics” value (over the therapeutic range of doses) was “linear”. The “unchanged drug found in the faeces” value (partly due to biliary elimination) was 30-50%, the CL/F [1] was 32.1 L/h and the Ka [1] was 3.54 h⁻¹. The Lag time [1] was 0.39 h, the Q/F [1] was 8.85 L/h and the Vc/F [1] was 214 L. The Vp/F [1] was 134 L, the “risk of bleeding, 30 mg twice-daily vs 60 mg once-daily” value (patients with NVAF [2]) was “greater” and the “Significant covariates: Body weight (PK parameters influenced)” value (from here on “Significant covariates: Body weight”) [3] was “CLNR/F, Q/F,; also recorded: Vc/F, Vp/F”. The “Significant covariates: CRCL (PK parameters influenced)” value (from here on “Significant covariates: CRCL”) [3] was “CL/F”, the “Significant covariates: P-gp inhibition (PK parameters influenced)” value (shortened to “Significant covariates: P-gp inhibition”) [3] was “CL/F, F” and the “Significant covariates: Race (PK parameters influenced)” value [3] was “Vc/F”. The “CL/F (CLNR/F)” value ([3]; non-renal clearance, population mean, Phases I and III) was 15.5 L/h, the Ka [3, 8] was 3.35 h⁻¹ and the Lag time [3, 8] was 0.25 h. For the same molecule, the Q/F [3, 8] was 5.92 L/h, the Vc/F [3, 8] was 209 L and the Vp/F [3, 8] was 92.3 L. For the same molecule, the “Significant covariates: Age (PK parameters influenced)” value [4] was “CL/F, Ka”, the “Significant covariates: Body weight” value [4] was “CL/F, Vc/F” and the “Significant covariates: CRCL” value [4] was “CL/F”. For the same molecule, the “Significant covariates: P-gp inhibition” value [4] was “Vc/F, Ka, F”, the CL/F [4, 9] was 11.4 L/h and the F [4, 9] was 0.58. For the same molecule, the Ka [4, 9] was 1.08 h⁻¹, the Lag time [4, 9] was 0.25 h and the Q/F [4, 9] was 2.73 L/h. For the same molecule, the Vc/F [4, 9] was 151 L, the Vp/F [4, 9] was 42.9 L and the P-gp substrate status (P-gp) was “substrate of P-gp”. The “Significant covariates: CRCL” value ([5]; Krekels et al. (2016)) was “CL/F”, the “CL/F (CLNR/F)” value ([5]; non-renal clearance, population mean, Krekels et al. (2016), Phases I and III) was 13.8 L/h and the “variance of ηCL/F (between-subject variability)” value [5, 10] was 0.0185. For the same molecule, the “variance of ηQ/F (between-subject variability)” value [5, 10] was 0.2285, the “variance of ηVc/F (between-subject variability)” value [5, 10] was 0.04623 and the “variance of ηVp/F (between-subject variability)” value [5, 10] was 0.2285. The Ka [5, 11] was 2.16 h⁻¹, the Lag time [5, 11] was 0.25 h and the Q/F [5, 11] was 5.75 L/h. The Vc/F [5, 11] was 194 L, the Vp/F [5, 11] was 88.6 L and the “Significant covariates: Body weight” value [6] was “Vc/F”. The “Significant covariates: CRCL” value [6] was “CL/F”, the “Significant covariates: Food (PK parameters influenced)” value [6] was “Ka” and the “Significant covariates: P-gp inhibition” value [6] was “CL/F, Ka, F”. For the same molecule, the “Significant covariates: Patient status (PK parameters influenced)” value [6] was “Vc/F”, the CL/F [6, 12] was 36 L/h and the F [6, 12] was 1. For the same molecule, the Ka [6, 12] was 5.87 h⁻¹, the Lag time [6, 12] was 0.42 h and the Q/F [6, 12] was 6.42 L/h. For the same molecule, the Vc/F [6, 12] was 244 L, the Vp/F [6, 12] was 90.3 L and the “trough edoxaban level required to reduce the risk of a major bleeding event below 2%” value (patients with NVAF [7]) was under 30 ng/mL. For the same molecule, the “trough edoxaban level required to reduce the risk of a major bleeding event below […]” value (patients with NVAF [7]) was under 40 ng/mL.
